{"source": "patent US11160887B2", "about": "“Compositions for use in diagnosing and treating melanoma, including metastatic melanoma and methods related to same” (UNM RAINFOREST INNOVATIONS, priority 2008, dated 2021)", "key": {"[1]": {"experiment": "Biodistribution in B16/F1 murine melanoma-bearing C57 mice", "format": "in vivo, mouse", "conditions": "female, C57, mouse, iv, 0.037 MBq, total radioactivity; for tissue uptake: all time points (2, 4, 24 h)", "protocol": "(§1) Biodistribution Studies: All the animal studies were conducted in compliance with Institutional Animal Care and Use Committee approval. The pharmacokinetics of ^111In-DOTA-CycMSH and ^111In-DOTA-GlyGlu-CycMSH were determined in B16/F1 murine melanoma-bearing C57 female mice (Harlan, Indianapolis, Ind.). C57 mice were inoculated subcutaneously with 1×10^6 B16/F1 murine melanoma cells in the right flank. After 10 days, when the weight of tumors reached approximately 0.2 g, 0.037 MBq of ^111In-DOTA-CycMSH or ^111In-DOTA-GlyGlu-CycMSH was injected into each mouse through the tail vein. Groups of 5 mice were sacrificed at 2, 4 and 24 h post-injection, and tumors and organs of interest were harvested, weighed and counted. Blood values were taken as 6.5% of the whole-body weight. The tumor uptake specificity of ^111In-DOTA-CycMSH and ^111In-DOTA-GlyGlu-CycMSH was determined by blocking tumor uptake with the co-injection of 10 μg (6.07 nmol) of unlabeled NDP-MSH, a linear α-MSH peptide analogue with picomolar affinity for the MC1 receptors present on murine melanoma cells. Statistical analysis was performed using the Student's t-test for unpaired data."}, "[2]": {"test_system": "B16/F1 murine melanoma-bearing C57 mice", "experiment": "Biodistribution in B16/F1 murine melanoma-bearing C57 mice", "format": "in vivo, mouse", "protocol": "as §1"}, "[3]": {"experiment": "Urinary metabolites by HPLC in B16/F1 melanoma-bearing C57 mice", "format": "in vivo, mouse", "conditions": "urine, 2 h post-injection", "protocol": "Urinary Metabolites of ^111In-DOTA-CycMSH and ^111In-DOTA-GlyGlu-CycMSH: One hundred microliter of HPLC purified ^111In-DOTA-CycMSH (0.74-1.11 MBq, 0.82-1.12 ng) or ^111In-DOTA-GlyGlu-CycMSH (0.74-1.11 MBq, 0.90-1.35 ng) was injected into each B16/F1 murine melanoma-bearing C57 mouse through the tail vein. At 2 h after dose administration, mice were sacrificed and the urine was collected. The radioactive metabolites in the urine were analyzed by injecting aliquots of urine into HPLC. A 20-minute gradient of 16-26% acetonitrile/20 mM HCl was used for the urine analysis."}, "[4]": {"experiment": "Stability in mouse serum monitored by RP-HPLC", "format": "in vitro ADME", "conditions": "37° C., 24 h incubation", "protocol": "Complexation of the Peptide with ^111In: ^111In-DOTA-CycMSH and ^111In-DOTA-GlyGlu-CycMSH were prepared using a 0.5 M NH4OAc-buffered solution at pH 5.4. Briefly, 50 μl of ^111InCl3 (18.5-37.0 MBq in 0.05 M HCl), 10 μl of 1 mg/ml DOTA-CycMSH or DOTA-GlyGlu-CycMSH aqueous solution and 400 μl of 0.5 M NH4OAc (pH 5.4) were added into a reaction vial and incubated at 75° C. for 45 min. After the incubation, 20 μl of 0.5% EDTA aqueous solution was added into the reaction vial to scavenge potential unbound ^111In. The radiolabeled complexes were purified to single species by Waters RP-HPLC (Milford, Mass.) on a Grace Vadyc C-18 reverse phase analytical column (Deerfield, Ill.) using a 20-minute gradient of 16-26% acetonitrile in 20 mM HCl aqueous solution with a flowrate of 1 ml/min. Purified peptide samples were purged with N2 gas for 20 minutes to remove the acetonitrile. The pH of final solution was adjusted to 7.4 with 0.1 N NaOH and normal saline for animal studies. The stability of ^111In-DOTA-CycMSH and ^111In-DOTA-GlyGlu-CycMSH was determined by incubation in mouse serum at 37° C. according to the published procedure (20) for various time periods, and monitored for degradation by RP-HPLC."}, "[5]": {"target": "T1, MC1 receptor (B16/F10 murine melanoma cells) (Mus musculus, UniProt Q01727)", "T1 construct": "host or cells: B16/F10 murine melanoma cells", "T1 sequence (Q01727 whole entry)": "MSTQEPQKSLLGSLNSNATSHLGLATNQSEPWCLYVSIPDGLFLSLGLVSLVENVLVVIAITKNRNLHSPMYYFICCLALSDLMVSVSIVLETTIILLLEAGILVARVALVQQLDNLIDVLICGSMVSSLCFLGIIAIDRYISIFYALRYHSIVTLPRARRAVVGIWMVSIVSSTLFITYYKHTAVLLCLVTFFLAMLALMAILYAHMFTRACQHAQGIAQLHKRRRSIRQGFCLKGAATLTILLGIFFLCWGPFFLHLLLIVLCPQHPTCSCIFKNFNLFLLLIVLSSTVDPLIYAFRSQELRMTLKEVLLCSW", "experiment": "In vitro competitive binding assay in B16/F10 cells (125I-(Tyr2)-NDP-MSH displacement)", "conditions": "25° C., 2 h, read-out: IC50 (MC1 receptor binding affinity)", "protocol": "In vitro Competitive Binding Assay: The IC50 value of DOTA-GlyGlu-CycMSH was determined in B16/F10 cells. The cells were harvested and seeded into a 24-well cell culture plate (5×10^5/well) and incubated at 37° C. overnight. After being washed once with binding media, the cells were incubated at 25° C. for 2 h with approximately 50,000 cpm of ^125I-(Tyr^2)-NDP-MSH in the presence of increasing concentrations of DOTA-GlyGlu-CycMSH (10^−12 to 10^−5 M) in 0.3 mL of binding media. The reaction media were aspirated after incubation. Cells were rinsed with 0.5 mL of ice-cold pH 7.4, 0.2% BSA/0.01 M PBS twice, and then lysed in 0.5 mL of 1 N NaOH for 5 min. The activities associated with the cells were measured in a gamma counter. The IC50 value was calculated by using Prism software."}, "[6]": {"target": "T2, MC1 receptor (B16/F1 murine melanoma cells) (Mus musculus, UniProt Q01727)", "T2 construct": "host or cells: B16/F1 murine melanoma cells", "T2 sequence (Q01727 whole entry)": "as above", "experiment": "In vitro competitive binding assay in B16/F1 cells (125I-Tyr2-NDP-MSH displacement)", "conditions": "25° C., 2 h", "protocol": "In vitro Competitive Binding Assay: The IC50 values of DOTA-CycMSH and DOTA-GlyGlu-CycMSH were determined by using methods described previously (8). B16/F1 cells were harvested and seeded into a 24-well cell culture plate (5×10^5/well) and incubated at 37° C. overnight. After being washed once with binding media (MEM with 25 mM HEPES, pH 7.4, 0.2% BSA, 0.3 mM 1,10-phenathroline), the cells were incubated at room temperature (25° C.) for 2 h with approximately 50,000 cpm of ^125I-Tyr^2-[Nle^4, D-Phe^7]-α-MSH {NDP-MSH} (GE HealthCare, Piscataway, N.J.) in presence of increasing concentrations of DOTA-CycMSH or DOTA-GlyGlu-CycMSH in 0.3 ml of binding media. The reaction media were aspirated after incubation. Cells were rinsed with 0.5 ml of ice-cold pH 7.4, 0.2% BSA/0.01 M PBS twice and lysed in 0.5 ml of 1 N NaOH for 5 minutes. The activities in cells were measured in a gamma counter. The IC50 values for the peptides were calculated by using the Grafit software (Erithacus Software Limited, UK).\nIn vitro Competitive Binding Assay: The IC50 values of DOTA-GluGlu-CycMSH and Ac-GluGlu-CycMSH[DOTA] were determined by using methods described previously (12). B16/F1 cells were harvested and seeded into a 24-well cell culture plate (5×10^5/well) and incubated at 37° C. overnight. After being washed once with binding media (MEM with 25 mM HEPES, pH 7.4, 0.2% BSA, 0.3 mM 1,10-phenathroline), the cells were incubated at 25° C. for 2 h with approximately 50,000 cpm of ^125I-(Tyr^2)-NDP-MSH in the presence of increasing concentrations (10^−13 to 10^−6 M) of DOTA-GluGlu-CycMSH or Ac-GluGlu-CycMSH[DOTA] in 0.3 ml of binding media. The reaction media were aspirated after incubation. Cells were rinsed with 0.5 ml of ice-cold pH 7.4; 0.2% BSA/0.01 M PBS twice and lysed in 0.5 ml of 1 N NaOH for 5 min. The activities associated with cells were measured in a Wallac 1480 automated gamma counter (PerkinElmer, N.J.). The IC50 values of the peptides were calculated by using Prism software (GraphPad Software, La Jolla, Calif.)."}, "[7]": {"test_system": "endocytosis in tubular cells", "conditions": "rat model, literature (27); cited from earlier work"}}, "note": "Like-named read-outs stand apart in the source and are kept apart here. Residues, ends and D or L forms follow the SMILES beside them.", "data": [{"smiles": "CCCC[C@@H]1NC(=O)[C@@H](NC(=O)CN2CCN(CC(=O)O)CCN(CC(=O)O)CCN(CC(=O)O)CC2)CCCCNC(=O)[C@H](CC(=O)O)NC(=O)[C@H](C(C)C)NC(=O)[C@@H]2CCCN2C(=O)[C@H](CCCNC(=N)N)NC(=O)CNC(=O)[C@H](Cc2c[nH]c3ccccc23)NC(=O)[C@H](CCCNC(=N)N)NC(=O)[C@@H](Cc2ccccc2)NC(=O)[C@H](Cc2c[nH]cn2)NC(=O)[C@H](CCC(=O)O)NC1=O", "note": "[^111In-DOTA-CycMSH, metal not drawn] (HELM PEPTIDE1{[O=C(O)CN1CCN(CC(=O)O)CCN(CC(=O)[*:2])CCN(CC(=O)O)CC1].K.[Nle].E.H.[dF].R.W.G.R.P.V.D}$PEPTIDE1,PEPTIDE1,2:R3-13:R2$$$V2.0)", "values": [{"measurement": "tissue uptake", "setting": "[1]; bone, read-out: bone uptake", "value": "< 0.2", "unit": "%ID/g"}, {"measurement": "kidney uptake at 24 h", "setting": "[1]; kidney, 24 h after dose administration", "value": "16 ± 2.3", "unit": "%ID/g"}, {"measurement": "tissue uptake", "setting": "[1]; normal organs except the kidneys, read-out: normal organ uptakes except for the kidneys", "value": "< 0.8", "unit": "%ID/g"}, {"measurement": "tissue uptake at 2 h", "setting": "[1]; tumor, 2 h post-injection, tail vein", "value": "9.53 ± 1.41", "unit": "%ID/g"}, {"measurement": "tissue uptake at 4 h", "setting": "[1]; tumor, 4 h post-injection, tail vein", "value": "7.54 ± 0.7", "unit": "%ID/g"}, {"measurement": "tissue uptake at 24 h", "setting": "[1]; tumor, 24 h post-injection, tail vein", "value": "2.22 ± 0.51", "unit": "%ID/g"}, {"measurement": "dose excreted", "setting": "[1]; urine, by 2 h post-injection, read-out: injected radioactivity cleared through the urinary system", "value": "~90", "unit": "%"}, {"measurement": "tumor uptake with NDP co-injection as % of the tumor uptake without NDP co-injection", "setting": "[2]; 10 μg (6.07 nmol) non-radiolabeled NDP co-injection, 2 h after dose administration", "value": 3.0, "unit": "%"}, {"measurement": "tumor uptake", "setting": "[2]; 2 h post-injection, tail vein", "value": "9.53±1.41", "unit": "% ID/g"}, {"measurement": "urinary metabolites by RP-HPLC", "setting": "[3]", "value": "transformed to two more polar metabolites"}, {"measurement": "stability in mouse serum", "setting": "[4]", "value": "stable"}]}, {"smiles": "CCCC[C@@H]1NC(=O)[C@@H](NC(=O)[C@H](CCC(=O)O)NC(=O)CNC(=O)CN2CCN(CC(=O)O)CCN(CC(=O)O)CCN(CC(=O)O)CC2)CCCCNC(=O)[C@H](CC(=O)O)NC(=O)[C@H](C(C)C)NC(=O)[C@@H]2CCCN2C(=O)[C@H](CCCNC(=N)N)NC(=O)CNC(=O)[C@H](Cc2c[nH]c3ccccc23)NC(=O)[C@H](CCCNC(=N)N)NC(=O)[C@@H](Cc2ccccc2)NC(=O)[C@H](Cc2c[nH]cn2)NC(=O)[C@H](CCC(=O)O)NC1=O", "note": "[DOTA-GlyGlu-CycMSH, DOTA-Gly-Glu-c[Lys-Nle-Glu-His-DPhe-Arg-Trp-Gly-Arg-Pro-Val-Asp]] (HELM PEPTIDE1{[O=C(O)CN1CCN(CC(=O)O)CCN(CC(=O)[*:2])CCN(CC(=O)O)CC1].G.E.K.[Nle].E.H.[dF].R.W.G.R.P.V.D}$PEPTIDE1,PEPTIDE1,4:R3-15:R2$$$V2.0)", "values": [{"measurement": "IC50", "setting": "[5]", "value": 2.43, "unit": "nM"}, {"measurement": "IC50", "setting": "[6]", "value": 0.9, "unit": "nM"}]}, {"smiles": "COc1cc2c(c(OC)c1OC)-c1ccc(OC)c(=O)cc1[C@@H](NC(C)=O)CC2", "note": "[colchicine]", "values": [{"measurement": "decrease of the renal uptake of radiolabeled peptide", "setting": "[7]", "value": "up to 25%"}]}]}
